Experimental findings from ChEMBL document CHEMBL1157008, “Discovery of 2-{4-[(3S)-piperidin-3-yl]phenyl}-2H-indazole-7-carboxamide (MK-4827): a novel oral poly(ADP-ribose)polymerase (PARP) inhibitor efficacious in BRCA-1 and -2 mutant tumors” (J Med Chem, 2009) are described below.

Series [1] addresses T1, PARP 1, 2 and 3 (Homo sapiens, UniProt P09874+Q9Y6F1+Q9UGN5). The experiment in a line: Inhibition of PARP in hydrogen peroxide-induced human HeLa cells assessed as inhibition DNA-damage-induced PARylation. In kind it is cell-based.
The target in series [2] is T1, PARP 1, 2 and 3. As to conditions: HeLa.
Series [3] concerns the target Poly [ADP-ribose] polymerase 1 (Homo sapiens, UniProt P09874). The experiment in a line: Inhibition of human PARP1 by SPA.
Series [4] in a line: Oral bioavailability in rat. It is filed as ADME, organism-based. As to conditions: in vivo.
For series [5], the target named is T2, CYP1A2 (Rattus norvegicus, UniProt P04799).
T2 sequence (P04799 whole entry): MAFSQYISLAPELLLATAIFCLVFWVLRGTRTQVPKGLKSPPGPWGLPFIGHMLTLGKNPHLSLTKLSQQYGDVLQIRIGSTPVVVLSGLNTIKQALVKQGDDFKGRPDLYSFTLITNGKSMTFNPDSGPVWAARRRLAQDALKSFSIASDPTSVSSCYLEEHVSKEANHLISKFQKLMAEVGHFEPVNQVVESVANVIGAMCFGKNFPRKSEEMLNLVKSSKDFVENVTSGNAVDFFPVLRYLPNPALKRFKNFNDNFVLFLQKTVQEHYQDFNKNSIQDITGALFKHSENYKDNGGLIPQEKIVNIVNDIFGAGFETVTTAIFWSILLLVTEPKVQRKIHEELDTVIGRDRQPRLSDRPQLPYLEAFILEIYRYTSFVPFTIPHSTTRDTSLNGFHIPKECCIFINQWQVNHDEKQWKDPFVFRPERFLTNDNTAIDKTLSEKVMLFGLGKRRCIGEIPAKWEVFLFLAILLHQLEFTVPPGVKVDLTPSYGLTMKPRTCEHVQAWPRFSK
The series is described as follows: (§1) Intrinsic clearance in rat liver microsomes assessed per mg of protein up to 60 mins in presence of rat recombinant CYP1A2. As to conditions: rat liver microsomes with rat recombinant CYP1A2. In kind it is ADME, Microsome. (In general: Liver microsomes are a subcellular fraction often used to study metabolism.)

Series [6] is described as follows: Intrinsic clearance in rat liver microsomes assessed per mg of protein up to 90 mins. It is filed as ADME, Microsome.
Series [7] can be described thus: Intrinsic clearance in mouse liver microsomes assessed per mg of protein up to 90 mins. It is filed as ADME, Microsome.
Series [8] deals with HeLa. The series is described as follows: Selectivity index, ratio of CC50 for BRCA1 proficient human HeLa cells to CC50 for BRCA1 deficient human HeLa cells. It is filed as functional.
Series [9] concerns HeLa. The experiment in a line: Antiproliferative activity against BRCA1 deficient human HeLa cells after 7 days by cell titer-blue assay. It is filed as functional. As to conditions: 168 h. (In general: Alamar Blue is a resazurin reagent that responds to reducing activity.)
Series [10] relates to HeLa. The series is described as follows: Antiproliferative activity against human HeLa cells expressing wild type BRCA1 after 7 days by cell titer-blue assay. It is filed as functional. As to conditions: 168 h.
A short description of series [11]: Plasma clearance in rat. In kind it is ADME, organism-based.
For series [12], the target named is T3, Cytochrome P450 1A2 (Rattus norvegicus, UniProt P04799).
T3 sequence (P04799 whole entry): T2 sequence (P04799 whole entry)
Described as §1. In kind it is ADME, Microsome. As to conditions: microsomes, 1 h.

Chain of Poly [ADP-ribose] polymerase 1 (P09874 whole entry): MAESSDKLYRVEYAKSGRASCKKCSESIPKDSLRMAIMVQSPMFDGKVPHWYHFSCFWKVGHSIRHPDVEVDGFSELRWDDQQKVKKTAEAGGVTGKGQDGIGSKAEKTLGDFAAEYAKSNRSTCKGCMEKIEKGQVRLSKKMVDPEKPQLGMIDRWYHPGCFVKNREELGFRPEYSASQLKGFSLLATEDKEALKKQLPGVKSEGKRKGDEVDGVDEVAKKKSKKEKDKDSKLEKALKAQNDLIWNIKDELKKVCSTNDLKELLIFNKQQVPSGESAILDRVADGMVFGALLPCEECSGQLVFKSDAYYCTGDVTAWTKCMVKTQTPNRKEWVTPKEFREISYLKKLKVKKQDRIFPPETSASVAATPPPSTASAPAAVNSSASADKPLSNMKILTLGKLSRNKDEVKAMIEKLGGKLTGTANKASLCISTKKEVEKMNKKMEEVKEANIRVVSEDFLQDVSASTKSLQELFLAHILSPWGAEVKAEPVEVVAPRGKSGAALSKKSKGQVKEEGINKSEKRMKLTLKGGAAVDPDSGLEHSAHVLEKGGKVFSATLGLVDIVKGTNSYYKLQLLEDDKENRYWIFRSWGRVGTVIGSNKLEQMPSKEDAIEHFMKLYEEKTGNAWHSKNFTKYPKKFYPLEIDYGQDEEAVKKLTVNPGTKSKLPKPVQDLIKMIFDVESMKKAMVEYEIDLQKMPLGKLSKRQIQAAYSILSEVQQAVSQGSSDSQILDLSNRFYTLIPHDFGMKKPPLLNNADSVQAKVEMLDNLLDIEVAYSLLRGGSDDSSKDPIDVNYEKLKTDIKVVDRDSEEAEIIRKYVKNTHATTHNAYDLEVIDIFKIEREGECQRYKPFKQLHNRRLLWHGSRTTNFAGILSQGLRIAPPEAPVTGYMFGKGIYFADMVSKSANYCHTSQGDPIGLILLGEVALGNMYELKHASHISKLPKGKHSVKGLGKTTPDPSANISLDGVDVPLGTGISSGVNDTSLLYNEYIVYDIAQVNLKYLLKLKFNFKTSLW

In the case of `NC(=O)c1cccc2cn(-c3ccc(Cl)cc3)nc12`, in series [1], the EC50 came to 720 nM. Moreover, the 90% effect level in series [2] (EC90) was put at 6700 nM. This compound had an IC50 in series [3] of 24 nM.

Regarding `CN1CCN(Cc2ccc(-n3cc4cccc(C(N)=O)c4n3)cc2)CC1`, in series [4], the bioavailability is 11%. The microsomal CLint in series [5] was < 0.1 µL/min/mg; in series [6], 34 µL/min/mg; in [7], 2 µL/min/mg. Also, the “Selectivity Index” value in series [8] is recorded as 3. Moreover, the cytotoxic concentration (CC50) in series [9] worked out at 2700 nM; in series [10] it was 7900 nM. For the same compound, the EC50 in series [1] was 1100 nM. In [2], this compound showed an EC90 of 2700 nM. This compound yielded an IC50 in [3] of 31 nM. The compound further gave a clearance in series [11] of 8 mL/min/kg.

For `CNCc1cccc(-n2cc3cccc(C(N)=O)c3n2)c1`, the microsomal CLint in series [5] was found to be 5.4 µL/min/mg; in series [6], 32 µL/min/mg; in series [7] it was 5 µL/min/mg. Besides, the results for the CC50 in series [9] and in series [10] were 10300 nM and > 20000 nM, respectively. In series [3], this compound came in with an IC50 of 5.3 nM. The compound also displayed a clearance in [11] of 69 mL/min/kg.

`NC(=O)c1cccc2cn(-c3ccc4c(c3)CNCC4)nc12`: the values for the microsomal CLint in [5], in [6] and in [7] were 0.7 µL/min/mg, 52 µL/min/mg and 4 µL/min/mg, respectively. Also, the “Selectivity Index” value in series [8] was 16. Also, the CC50 in series [9] came to 130 nM; in series [10] it was 2200 nM. Moreover, the EC50 in series [1] worked out at 46 nM. Further, in [2], the EC90 came to 310 nM. It took 2.2 nM to reach half-maximal inhibition in [3] (IC50). For the same compound, the clearance in series [11] was 87 mL/min/kg.

For `NC(=O)c1cccc2cn(-c3ccc(CN4CCCCC4)cc3)nc12`, the values for the microsomal CLint in series [5], in series [6] and in series [7] were 3.8 µL/min/mg, 29 µL/min/mg and 3 µL/min/mg, respectively. Further, in series [8], the “Selectivity Index” value worked out at 5. In addition, the CC50 in [9] was found to be 880 nM; in series [10], 5800 nM. Also, the EC50 in series [1] is 180 nM. In [2], this compound registered an EC90 of 970 nM. Besides, in [3], the midpoint of inhibition, the IC50, lay at 1.9 nM. Further, in series [11], the clearance turned out to be 107 mL/min/kg.

For the compound `NC(=O)c1cccc2cn(-c3ccc4c(c3)CCNC4)nc12`, the bioavailability in series [4] is 22%. In addition, the CL in [12] came out at 0.7 µL/min/mg. For the same compound, the microsomal CLint came out at 36 µL/min/mg in series [6] and 3 µL/min/mg in [7]. Besides, in [8], the “Selectivity Index” value was 20. Besides, the CC50 in [9] came out at 270 nM; in series [10] it was 5400 nM. Besides, the EC50 in series [1] amounted to 13 nM. In series [2], this compound displayed an EC90 of 140 nM. Further, in series [3], the IC50 is 1.4 nM.

As to `NC(=O)c1cccc2cn(-c3ccc(CN4CCCC4)cc3)nc12`, the “Selectivity Index” value in series [8] came to 5. Also, the CC50 in series [9] was determined as 1200 nM; in [10] it was 8100 nM. In addition, in series [1], the EC50 is given as 94 nM. Also, in series [2], it took 450 nM to reach the 90% level (EC90). Moreover, the IC50 in series [3] turned out to be 4.8 nM.

Turning to `CCNCc1ccc(-n2cc3cccc(C(N)=O)c3n2)cc1`, the CC50 in series [9] worked out at 1600 nM; in [10], 7400 nM. In addition, the EC50 in [1] was 150 nM. This compound displayed an EC90 in series [2] of 2100 nM. The IC50 in series [3] was determined as 4.3 nM.

As for `NC(=O)c1cccc2cn(-c3cccc(Cl)c3)nc12`, in series [1], the EC50 came to 450 nM. Besides, in series [2], it took 5600 nM to reach the 90% level (EC90). Besides, in series [3], it took 14 nM to reach half-maximal inhibition (IC50).

On to `NC(=O)c1cccc2cn(-c3ccccc3Cl)nc12`, for which the IC50 in [3] was found to be 100 nM.

Compound `NC(=O)c1cccc2cn(-c3ccc([C@H]4CCCNC4)cc3)nc12` returned a bioavailability in series [4] of 47%. The figures for the microsomal CLint in series [5], in [6] and in series [7] were < 0.1 µL/min/mg, 7 µL/min/mg and 3 µL/min/mg, respectively. Besides, the CC50 in [9] was 470 nM; in [10], 5700 nM. In addition, the 90% effect concentration (EC90) in series [2] is 280 nM. Besides, in series [11], the clearance turned out to be 24 mL/min/kg.

For the compound `NC(=O)c1cccc2cc(-c3ccccc3)nn12`, in series [3], the half-maximal inhibitory concentration (IC50) was determined as 55 nM.

The compound `NC(=O)c1cccc2cn(-c3ccc(C4CCCNC4)cc3)nc12` (stereo unspecified) came in with a bioavailability in series [4] of 74%. Besides, the CL in series [12] came out at 0.3 µL/min/mg. For the same compound, the microsomal CLint in series [6] is 11 µL/min/mg; in series [7], 1 µL/min/mg. The results for the CC50 in [9] and in series [10] were 72 nM and 2000 nM, respectively. Moreover, the EC90 in series [2] was 220 nM. The compound further showed a clearance in [11] of 47 mL/min/kg.

As for `CNC(C)(C)c1ccc(-n2cc3cccc(C(N)=O)c3n2)cc1`, the CL in [12] was found to be 0.4 µL/min/mg. The microsomal CLint was 11 µL/min/mg in [6] and < 1 µL/min/mg in series [7]. In addition, the CC50 in series [9] was found to be 920 nM; in [10], 5500 nM. In series [1], the EC50 is recorded as 110 nM. The EC90 in series [2] is 900 nM. The same compound showed an IC50 in series [3] of 16 nM.

Broadly, the EC50 is the concentration that produces a half-maximal response. By EC90 is commonly meant the point of the concentration-response curve where the effect stands at 90%. Read a high EC90 as a need for much substance. By IC50 is commonly meant the point on the concentration scale where inhibition reaches its midpoint. Higher therefore signals weaker potency. What is called bioavailability is dose-corrected exposure relative to a reference, in per cent. Low readings indicate poor availability, high ones good availability. The term microsomal CLint denotes the rate of metabolic loss divided by the concentration. A word on the CC50: it is the concentration at which the toxic effect on the cells reaches its halfway point. A low value points to harm at low concentration. The term clearance denotes a measure of how efficiently the substance is removed, as volume per time. A lower clearance goes with inefficient removal.
